This is an account of results in patent US12577241B2, “Polycyclic pyridopyrazine derivative” (Shionogi & Co., Ltd., priority 2019, dated 2026).

Data set [1] deals with HIV. In words: Test Example 1: Anti-HIV activity (MT-4 cells, CellTiter-Glo). Type of data set: cell-based. As to conditions: Human immunodeficiency virus 1, MT4, 96 h, 4 days culture, CellTiter-Glo luminescence, read-out: EC50 (50% HIV inhibitory concentration). The protocol:
Test Example 1: Anti-HIV Activity
Serial dilutions of a test sample were prepared in a 384-well microplate by a dispensing machine. 6.25×10^4 cells/mL of a MT-4 cell suspension was dispensed at 20 μL/well to the plate containing the test sample. Then, an HIV virus solution was dispensed at 20 μL/well. The plate was mixed with a plate mixer and cultured for 4 days in a CO2 incubator. On day 4 of culture, CellTiter-Glo or CellTiter-Glo 2.0 was dispensed at 20 μL/well. The plate was reacted while being stirred with the plate mixer at room temperature for about 15 minutes. The amount of luminescence of the plate after the reaction was measured with a microplate reader. A 50% HIV inhibitory concentration (EC50) was determined from a concentration-dependent curve using the following 4 parameter logistic curve fitting model. y=A+((B−A)/(1+((C/x)^D))) • A=minimum rate of inhibition (negative control, 0%) • B=maximum rate of inhibition (positive control, 100%) • C=compound concentration at an inflection point • D=slope coefficient • x=compound concentration • y=rate of inhibition (%) (Results)
A general note: ATP-based viability assays read luminescence as a measure of living cells.

A short description of data set [2]: Test Example 7: Metabolism stability test. Type of data set: in vitro ADME. As to conditions: human liver microsomes 0.5 mg protein/mL, 30 minutes, 37° C., NADPH, compound concentration 0.5 μmol/L. The protocol:
Test Example 7: Metabolism Stability Test Commercially available pooled human liver microsomes were reacted with the compound of the present invention for a given time. A residual rate was calculated by the comparison between the reacted sample and an unreacted sample to evaluate the degree at which the compound of the present invention was metabolized in the liver. The compound was reacted at 37° C. for 0 minutes or 30 minutes in the presence of 1 mmol/L NADPH in 0.2 mL of a buffer solution (50 mmol/L Tris-HCl pH 7.4, 150 mmol/L potassium chloride, and 10 mmol/L magnesium chloride) containing 0.5 mg protein/mL of the human liver microsomes (oxidative reaction). After the reaction, 50 μL of the reaction solution was added to 100 μL of a solution of methanol/acetonitrile=1/1 (v/v), and the mixture was mixed and centrifuged at 3000 rpm for 15 minutes. The compound of the present invention in the centrifugation supernatant was quantified by LC/MS/MS or solid-phase extraction (SPE)/MS. The amount of the compound of the present invention remaining after the reaction was calculated with the amount of the compound at 0 minutes of the reaction defined as 100%.
(In general: Liver microsomes are a subcellular fraction often used to study metabolism.)

The subject of data set [3] is HIV. In words: Test Example 14: Anti-HIV activity evaluation test in presence of human serum protein. As to conditions: MT-4 cells; PS=4×(EC50 with 25% human serum protein/EC50 without); 100% extrapolated value. The format is cell-based. The procedure: Test Example 14: Anti-HIV Activity Evaluation Test in Presence of Human Serum Protein
Serial dilutions of a test sample were prepared in a 384-well microplate by a dispensing machine. A human serum protein solution (human serum protein concentration 50%) was dispensed at 20 μL/well to a 384-well microplate containing the test sample and left to stand still at room temperature for 1 hour. A culturing solution was dispensed at 20 μL/well to a plate for the absence of serum. 1 mL of 3.0×10^6 cells/mL of MT-4 cells and a 300 μL HIV virus solution were mixed and reacted at 37° C. for 1 hour. After the reaction, the cell suspension was centrifuged to discard the supernatant, the infected cells were dispersed in 40 mL of a culturing solution and the resultant solution was dispensed at 20 μL/well to a 384-well microplate containing the test sample and the human serum protein (human serum protein final concentration: 25%). The plate was mixed with a plate mixer and cultured for 4 days in a CO2 incubator. On day 4 of culture, CellTiter-Glo or CellTiter-Glo 2.0 was dispensed at 20 μL/well. The plate was reacted while being stirred with the plate mixer at room temperature for about 15 minutes. The amount of luminescence of the plate after the reaction was measured with a microplate reader. […]
The potency shift (PS) was calculated on the basis of the following calculation formula. […]

The test system of data set [4] is HIV mutant strains (E92Q/E138T/G140S/Q148H). Kind of data set: Test Example 2: Resistance evaluation test (HeLa-CD4 cells, wild and mutant strain). Type of data set: cell-based. As to conditions: 3 days. The procedure:
Test Example 2: Resistance Evaluation Test
Serial dilutions of a test sample were prepared in a 96-well microplate (50 μL/well). 2.5×10^5 cells/mL of a HeLa-CD4 cell suspension was dispensed at 100 μL/well to the plate containing the test sample. Then, an HIV virus solution (wild strain and mutant strain) was dispensed at 50 μL/well. The plate was mixed with a plate mixer and cultured for 3 days in a CO2 incubator. The culture supernatant in each well was removed by suction. A cell lysis buffer was dispensed at 100 μL/well, and the plate was frozen in a freezer (−80° C.). The plate frozen in a freezer was thawed at room temperature, then mixed with a plate mixer, and centrifuged at 1,200 rpm for 5 minutes. Beta-Glo Reagent was dispensed at 20 μL/well to a 384-well microplate, 2 μL of the supernatant of each well (diluted as necessary) of the plate after centrifugation was added, and then the mixture was reacted at room temperature for about 30 minutes. The amount of luminescence of the plate after the reaction was measured with a microplate reader. A 50% HIV inhibitory concentration (EC50) was determined from a concentration-dependent curve using the following 4 parameter logistic curve fitting model. y=A+((B−A)/(1+((C/x)^D))) • A=minimum rate of inhibition (negative control, 0%) • B=maximum rate of inhibition (positive control, 100%) • C=compound concentration at an inflection point • D=slope coefficient • x=compound concentration • y=rate of inhibition (%)
The degree of resistance (fold change (FC)) of each mutant strain was calculated according to the following expression. • FC=EC50 of the mutant strain/EC50 of the wild strain (Results)

Data set [5] is described as follows: Test Example 6: Clearance evaluation test. The format is in vivo, Rats. As to conditions: plasma, 1 umol/kg, rat, intravenous 1 μmol/kg; for half-life: read-out: Elimination half-life (t½) (converted); for clearance: read-out: Total body clearance (CLtot). The source says:
Test Example 6: Clearance Evaluation Test Experimental Material and Method (1) Animals used: Rats were used. (2) Breeding conditions: The rats were allowed to freely take solid food and sterilized tap water. (3) Dose and grouping setting: A predetermined dose was intravenously administered. Groups were set as follows: Intravenous administration: 1 μmol/kg (n=2) (4) Preparation of dosing solution: The test sample was solubilized using a solvent of dimethyl sulfoxide/propylene glycol=1/1 and administered. (5) Administration method: The test sample was administered to the tail vein through a syringe with an injection needle. (6) Evaluation item: Blood was collected over time, and the concentration of the compound of the present invention in plasma was measured using LC/MS/MS. (7) Statistical analysis: Total body clearance (CLtot) and elimination half-life (t½) were calculated as to change in the concentration of the compound of the present invention in plasma by the moment analysis method.

The target of data set [6] is T1, Nav 1.5 channel (Homo sapiens, UniProt Q14524).
T1 construct: expressed in transfected cells; host or cells: HEK cells
Kind of data set: Test Example 13: Nav test. The format is cell-based. Particulars: HEK cells expressing Nav 1.5 channel, INa, whole cell patch clamp, relative to vehicle. The source says:
Test Example 13: Nav Test
For the purpose of assessing proarrhythmic risk of the compound of the present invention, effects of the compound of the present invention on Na^+ current (INa), which plays an important role in the myocardial depolarization process, was studied using HEK cells expressing Voltage gated sodium channel (Nav 1.5 channel) encoded by SCNSA gene.
After a cell was retained at a membrane potential of −100 mV by the whole cell patch clamp method using an automated patch clamp system (QPatch; Sophion Bioscience A/S), INa induced by depolarization pulse stimulation at −10 mV for 20 milliseconds was recorded. An extracellular fluid (NaCl: 145 mmol/L, KCl 4 mmol/L, CaCl2: 2 mmol/L, MgCl2: 1 mmol/L, glucose: 10 mmol/L, HEPES (4-(2-hydroxyethyl)-1-piperazineethanesulfonic acid): 10 mmol/L, tetraethylammonium hydroxide (TEA): 10 mmol/L, pH=7.4) adjusted to 0.3% with dimethyl sulfoxide was used as a vehicle to apply the vehicle and the extracellular fluid containing the compound of the present invention dissolved at a concentration of interest to the cells under conditions of room temperature for 5 minutes or longer. From the obtained INa, the absolute value of the maximum peak current based on the current value at the membrane potential where the cells have been kept was measured using analytical software (QPatch Assay software; Sophion Bioscience A/S). The ratio of the maximum peak current at the time of applying the compound of the present invention to the maximum peak current at the time of applying the vehicle and the electric charge amount at the time of applying the compound of the present invention with respect to the electric charge amount at the time of applying vehicle were calculated, and the influence of the compound of the present invention on INa was evaluated.
In general terms: The patch-clamp technique gives a direct electrical read-out from membranes.

Data set [7] has as its target T2, CYP3A4 (Homo sapiens, UniProt P08684).
T2 construct: pooled human liver microsomes, 0.5 mg/mL for the prereaction; from tissue; host or cells: pooled human liver microsomes
Kind of data set: Test Example 4: CYP3A4 (MDZ) MBI test. Type of data set: in vitro ADME. As to conditions: pooled human liver microsomes, midazolam 1-hydroxylation, IC 0 min preincubation/IC 30-min preincubation. The procedure:
Test Example 4: CYP3A4 (MDZ) MBI Test
This test as to the inhibition of CYP3A4 by the compound of the present invention is to evaluate mechanism based inhibition (MBI) ability from enhancement in inhibitory effect, caused by a metabolism reaction, of the compound of the present invention. CYP3A4 inhibition was evaluated using pooled human liver microsomes by 1-hydroxylation reaction of midazolam (MDZ) as a marker reaction. […]
The pooled human liver microsomes and a solution of the compound of the present invention were added according to the recipe of the prereaction described above into a K-Pi buffer solution (pH 7.4) as a prereaction solution in a 96-well plate. […] After centrifuged at 3000 rpm for 15 minutes, 1-hydroxymidazolam in the supernatant was quantified by LC/MS/MS.
Only a solvent DMSO used for dissolving the compound was added to the reaction solution instead of the compound of the present invention, and the mixture was used as a control (100%). Remaining activity (%) at the time of the addition of the compound of the present invention at each concentration was calculated, and IC was calculated by inverse estimation based on a logistic model using the concentrations and the rates of suppression. A shifted IC value is calculated from IC from the 0 min preincubation/IC from the 30-min preincubation. […]

As a reminder, the half-life is the time in which the quantity being followed falls by half. The clearance is the volume of plasma or blood freed of the substance per unit of time.

T1 sequence (Q14524 whole entry): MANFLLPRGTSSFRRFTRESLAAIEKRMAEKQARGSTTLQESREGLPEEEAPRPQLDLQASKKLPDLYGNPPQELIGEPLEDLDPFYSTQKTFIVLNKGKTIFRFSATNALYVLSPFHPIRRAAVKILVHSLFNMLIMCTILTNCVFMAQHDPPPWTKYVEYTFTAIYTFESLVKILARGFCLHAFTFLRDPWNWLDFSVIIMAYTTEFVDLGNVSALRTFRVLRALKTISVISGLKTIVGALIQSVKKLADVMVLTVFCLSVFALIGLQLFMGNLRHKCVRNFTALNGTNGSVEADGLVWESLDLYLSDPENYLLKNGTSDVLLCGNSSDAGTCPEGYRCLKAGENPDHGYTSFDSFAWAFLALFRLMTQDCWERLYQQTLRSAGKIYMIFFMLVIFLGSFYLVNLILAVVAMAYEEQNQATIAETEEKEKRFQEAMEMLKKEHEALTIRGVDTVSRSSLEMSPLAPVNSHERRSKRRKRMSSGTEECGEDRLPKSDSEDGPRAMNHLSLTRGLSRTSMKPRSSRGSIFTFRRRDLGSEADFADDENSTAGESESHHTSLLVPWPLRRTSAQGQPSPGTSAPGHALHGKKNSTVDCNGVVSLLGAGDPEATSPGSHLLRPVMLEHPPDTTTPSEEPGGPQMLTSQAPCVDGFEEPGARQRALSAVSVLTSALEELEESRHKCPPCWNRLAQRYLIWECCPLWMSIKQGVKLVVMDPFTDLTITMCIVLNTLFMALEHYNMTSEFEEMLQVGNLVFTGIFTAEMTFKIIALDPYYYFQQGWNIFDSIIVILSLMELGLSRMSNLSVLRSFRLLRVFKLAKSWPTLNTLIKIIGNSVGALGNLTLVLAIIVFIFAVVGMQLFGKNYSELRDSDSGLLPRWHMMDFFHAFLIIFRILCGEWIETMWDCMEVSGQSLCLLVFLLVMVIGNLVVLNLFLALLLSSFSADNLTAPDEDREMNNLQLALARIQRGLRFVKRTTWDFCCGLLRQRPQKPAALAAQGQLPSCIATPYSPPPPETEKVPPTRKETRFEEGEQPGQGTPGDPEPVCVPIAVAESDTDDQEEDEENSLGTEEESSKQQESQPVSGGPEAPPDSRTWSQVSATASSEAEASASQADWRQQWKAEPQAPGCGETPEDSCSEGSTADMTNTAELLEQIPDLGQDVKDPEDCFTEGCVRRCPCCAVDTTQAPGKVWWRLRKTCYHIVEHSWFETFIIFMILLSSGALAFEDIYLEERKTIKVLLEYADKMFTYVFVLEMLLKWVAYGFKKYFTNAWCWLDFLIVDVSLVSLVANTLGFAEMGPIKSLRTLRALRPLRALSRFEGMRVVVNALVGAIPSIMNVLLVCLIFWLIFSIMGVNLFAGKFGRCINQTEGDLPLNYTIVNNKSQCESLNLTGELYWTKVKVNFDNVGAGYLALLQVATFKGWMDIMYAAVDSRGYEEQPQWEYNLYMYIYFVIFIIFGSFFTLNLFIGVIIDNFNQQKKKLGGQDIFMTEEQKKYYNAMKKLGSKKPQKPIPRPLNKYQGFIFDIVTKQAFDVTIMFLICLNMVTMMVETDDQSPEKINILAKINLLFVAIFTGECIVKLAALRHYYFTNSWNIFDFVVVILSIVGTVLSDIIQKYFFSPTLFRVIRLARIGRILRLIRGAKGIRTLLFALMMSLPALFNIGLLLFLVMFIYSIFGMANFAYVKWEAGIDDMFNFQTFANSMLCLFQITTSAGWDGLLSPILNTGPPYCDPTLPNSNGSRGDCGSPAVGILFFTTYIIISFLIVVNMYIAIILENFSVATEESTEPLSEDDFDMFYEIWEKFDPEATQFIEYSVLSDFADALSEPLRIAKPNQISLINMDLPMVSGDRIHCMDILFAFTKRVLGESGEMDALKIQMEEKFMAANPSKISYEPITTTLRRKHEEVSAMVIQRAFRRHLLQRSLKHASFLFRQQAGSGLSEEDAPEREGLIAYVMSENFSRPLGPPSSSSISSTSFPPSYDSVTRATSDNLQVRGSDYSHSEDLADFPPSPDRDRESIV
T2 sequence (P08684 whole entry): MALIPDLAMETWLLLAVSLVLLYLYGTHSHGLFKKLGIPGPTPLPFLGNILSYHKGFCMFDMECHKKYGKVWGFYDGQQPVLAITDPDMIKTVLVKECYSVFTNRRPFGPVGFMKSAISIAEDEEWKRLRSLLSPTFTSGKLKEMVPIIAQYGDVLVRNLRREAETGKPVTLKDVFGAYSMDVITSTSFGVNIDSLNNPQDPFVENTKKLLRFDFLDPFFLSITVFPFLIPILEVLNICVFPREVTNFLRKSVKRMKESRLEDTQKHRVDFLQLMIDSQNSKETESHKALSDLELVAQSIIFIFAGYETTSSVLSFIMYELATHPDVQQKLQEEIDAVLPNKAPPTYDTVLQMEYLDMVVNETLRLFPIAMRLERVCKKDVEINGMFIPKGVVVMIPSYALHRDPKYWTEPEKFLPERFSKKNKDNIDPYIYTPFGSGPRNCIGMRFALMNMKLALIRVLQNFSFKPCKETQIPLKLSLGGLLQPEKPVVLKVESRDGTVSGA

In the case of `CCN1C(=O)c2c(O)c(=O)c(C(=O)NCc3nccc(Cl)c3F)cn2[C@H]2CCCC[C@H]21` [Compound I-003], the EC50 in data set [1] was 3.9 nM. In data set [2], the Remaining rate is recorded as 91.7%.

In the case of `CCN1C(=O)c2c(O)c(=O)c(C(=O)NCc3cccc(Cl)c3F)cn2[C@@H]2[C@H]1CCCC2(F)F` [Compound I-005], in data set [1], the EC50 stood at 1 nM. In addition, the “Potency shift (PS) in the presence of human serum protein” value in data set [3] is 104. For the same compound, the “FC (fold change, degree of resistance) = EC50 of the mutant strain/EC50 of the wild strain” value in data set [4] was 6.7. In addition, in data set [5], the half-life is 10.9 h and the clearance amounted to 7.02 mL/h/kg.

As for `CCN1C(=O)c2c(O)c(=O)c(-c3nnc(Cc4ccc(F)cc4F)s3)cn2[C@H]2CCCC[C@H]21` [Compound I-017], the EC50 in data set [1] turned out to be 4.2 nM. Moreover, in data set [6], the “electric charge amount increase rate” value worked out at 133% and the “maximum current amount increase rate” value amounted to 95.6%. In data set [4], the “FC (fold change, degree of resistance) = EC50 of the mutant strain/EC50 of the wild strain” value was 6.0. In data set [5], the half-life was 15.3 h and the clearance stood at 4.27 mL/h/kg.

Consider `CCN1C(=O)c2c(O)c(=O)c(-c3nnc(Cc4ccc(F)cc4F)s3)cn2[C@H]2CCC[C@H]21` [Compound I-020], for which the EC50 in data set [1] was 5 nM. Besides, the “Potency shift (PS) in the presence of human serum protein” value in data set [3] is listed as 29. In addition, the “FC (fold change, degree of resistance) = EC50 of the mutant strain/EC50 of the wild strain” value in data set [4] is recorded as 7.7. For the same compound, in data set [2], the Remaining rate turned out to be 74.6%.

`CCN1C(=O)c2c(O)c(=O)c(-c3nnc(Cc4ccc(F)cc4F)s3)cn2[C@@H]2[C@H]1CCCC2(F)F` [Compound I-022]: the EC50 in data set [1] was 5.3 nM. In data set [6], the “electric charge amount increase rate” value is given as 137% and the “maximum current amount increase rate” value worked out at 93.1%. Besides, in data set [7], the “Shifted IC grade (mechanism based inhibition)” value was “(−) (shifted IC of 1.0 or less is graded as negative (−))”.
